One experiment addresses VR (Homo sapiens, UniProt Q8NER1). The note with it: background; typical value; cited from earlier work.
The next experiment concerns the target T1, human capsaicin receptor (Homo sapiens, UniProt Q8NER1).
T1 construct: expressed in transfected cells
Put plainly: Calcium mobilization assay, determination of antagonist activity (Example 6). The experiment is classed as cell-based. In a few lines:
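Clonal HEK293 cells stably expressing full-length human capsaicin receptor, loaded with Fluo-3 AM in KRH buffer pH 7.4. Compounds preincubated 0.5–6 h at room temperature in the dark, then challenged with capsaicin at its predetermined EC50; fluorescence by FLIPR/Fluoroskan; IC50 is concentration giving 50% decrease of capsaicin response.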

[1] abbreviates: Table I, IC50 determined as described in Example 6, read-out: IC50.
The mark [2] stands for this setting: cells expressing human capsaicin receptor, capsaicin at EC50, read-out: IC50 determined as described in Example 6.

The source of these data is patent US7935702B2, “Substituted biaryl quinolin-4-ylamine analogues” (Neurogen Corporation, priority 2004, dated 2011).

Where two headings read alike, the source gives them in different places. Bounds are passed on as bounds.

T1 sequence (Q8NER1 whole entry): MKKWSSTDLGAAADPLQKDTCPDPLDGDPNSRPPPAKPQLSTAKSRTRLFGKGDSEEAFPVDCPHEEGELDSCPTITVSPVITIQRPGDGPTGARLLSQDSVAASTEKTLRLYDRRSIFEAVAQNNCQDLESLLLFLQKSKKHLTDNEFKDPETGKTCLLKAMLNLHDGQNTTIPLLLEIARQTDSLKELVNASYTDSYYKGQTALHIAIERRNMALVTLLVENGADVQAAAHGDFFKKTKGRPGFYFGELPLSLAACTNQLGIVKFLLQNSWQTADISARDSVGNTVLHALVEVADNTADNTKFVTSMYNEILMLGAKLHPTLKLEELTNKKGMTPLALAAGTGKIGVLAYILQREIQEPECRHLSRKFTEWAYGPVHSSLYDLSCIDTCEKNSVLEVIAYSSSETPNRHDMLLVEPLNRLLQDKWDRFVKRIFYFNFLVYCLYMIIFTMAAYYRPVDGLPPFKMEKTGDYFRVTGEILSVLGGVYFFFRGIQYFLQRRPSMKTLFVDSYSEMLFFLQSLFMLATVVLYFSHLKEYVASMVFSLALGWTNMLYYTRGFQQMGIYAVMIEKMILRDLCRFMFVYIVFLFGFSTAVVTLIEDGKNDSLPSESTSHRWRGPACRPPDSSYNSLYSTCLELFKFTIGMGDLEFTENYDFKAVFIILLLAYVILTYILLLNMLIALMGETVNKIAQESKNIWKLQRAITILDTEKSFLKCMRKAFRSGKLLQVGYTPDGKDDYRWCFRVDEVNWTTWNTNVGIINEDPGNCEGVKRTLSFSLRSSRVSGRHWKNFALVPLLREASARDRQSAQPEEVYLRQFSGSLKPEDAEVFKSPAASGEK
Sequence of VR (Q8NER1 whole entry): as above

The Ki is the equilibrium dissociation constant of an inhibitor or competing ligand from its target. For the compound `Cl.Cl.Cl.Cl.Cl.Cl.N.N.N.N.N.N.N.N.N.N.N.N.N.N.[O-2].[O-2].[Ru+3].[Ru+3].[Ru+4]` [ruthenium red], on VR, the Ki is no less than 140 µM.

Broadly, the IC50 is the point on the concentration scale where inhibition reaches its midpoint. In the case of `O=C(O)c1cnc(-c2cnc3c(Nc4ccc(C(F)(F)F)cn4)ccnc3n2)c(C(F)(F)F)c1` [compound 33, 5-(trifluoromethyl)-6-(8-{[5-(trifluoromethyl)-2-pyridinyl]amino}pyrido[2,3-b]pyrazin-3-yl)nicotinic acid], the IC50 on human capsaicin receptor (setting [1]) is less than 1 µM.

For the compound `CCC(CC)Nc1cc(C(F)(F)F)c(-c2cnc3c(Nc4ccc(C(F)(F)F)cn4)ccnc3n2)nn1` [compound 115, 3-{6-[(1-ethylpropyl)amino]-4-(trifluoromethyl)pyridazin-3-yl}-N-[5-(trifluoromethyl)-pyridin-2-yl]pyrido[2,3-b]pyrazin-8-amine], the IC50 at human capsaicin receptor (setting [1]) is less than 1 µM.

For `CCOc1cc(C(F)(F)F)c(-c2cnc3c(Nc4ccc(C(F)(F)F)cn4)ccnc3n2)nn1` [Compound 16], the IC50 on human capsaicin receptor (setting [2]) was less than 1 µM.

On to `COc1ccc(C(F)(F)F)c(-c2ccc3c(Nc4ccc(C(F)(F)F)cn4)ccnc3n2)n1` [Compound 5, [7-(6-Methoxy-3-trifluoromethyl-pyridin-2-yl)-[1,8]naphthyridin-4-yl]-(5-trifluoromethyl-pyridin-2-yl)-amine], for which, on human capsaicin receptor (setting [2]), the IC50 was less than 1 µM.

With `CCN(CC)C1CCN(c2cc(C(F)(F)F)c(-c3cnc4c(Nc5ccc(C(F)(F)F)cn5)ccnc4n3)nn2)CC1` [compound 80], the IC50 on human capsaicin receptor (setting [1]) was less than 1 µM.
